Read-outs that look alike come from different tables or passages of the source.

Common to all, as to assay type: cell-based
The nature of one data set: in vitro. The settings on record: MTT, read-out: LC50 lethal concentration on human monocyte-derived macrophages (hMDMD). The method, then:
The cytotoxicity of the compounds was evaluated according to the ability to kill macrophages derived from human monocytes (hMDM) by the […] method, following the procedures performed by Pastrana Restrepo et al.. The hMDM were obtained from 50 mL of desfribrinated whole blood from healthy donors. These samples were mixed in a 1:1 ratio with Dulbecco PBS free of calcium and magnesium (DPBS). The mixture was centrifuged in a Ficoll Hypaque 1077 density gradient in a 1:3 ratio (blood–Ficoll) for separation of mononuclear cells, centrifuging at 2000 rpm for 20 min at 37 °C. The mononuclear cell layer was separated and these cells were washed twice with a solution of DPBS centrifuged at 13000 rpm for 10 min. After the last wash, the cells were resuspended in an RPMI medium with 10% autologous serum at a concentration of 0.3 × 10^6 cells/mL. Then, 1 mL of cells was placed in each well of 24-well culture dishes and incubated at 37 °C, 5% CO2 for 72 h to allow the differentiation of monocytes to macrophages. For the MTT test, the hMDM were adjusted to a concentration of 0.5 × 10^6 cells/mL in the RPMI medium supplemented with 10% FBS, and the concentration of the compound in the culture was adjusted (four serial dilutions starting at 200 μM). Amphotericin B and Doxorubicin were used as controls for the determination of cytotoxicity. Each experiment was performed in triplicate.
In this case, the in vitro cytotoxicity was defined by the decrease in the cell viability and growth, obtained from the OD for each experimental condition, using the following formula: (%) viability inhibition = […], where the OD of untreated cells corresponds to 100% of the viability. Growth inhibition percentage data obtained for each experimental condition were used to calculate the half lethal concentration (LC50) by the Probit analysis.
The cytotoxicity of each compound was rated according to its LC50. […]

The next data set has as its system Leishmania braziliensis. As to the kind of experiment: In vitro experiments on Leishmania braziliensis. The conditions noted are these: mean ± SD.
The subject of a further data set is T. cruzi amastigote. The data set is described as follows: In vitro antitrypanosomal activity, amastigotes in U937 macrophages (β-galactosidase Tulahuen strain). The settings on record: Trypanosoma cruzi, U-937; infected U937 macrophages, 72 h; mean ± SD; read-out: IC50 inhibitory concentration of T. cruzi amastigote. As to the method: A human promonocitic U937 line was cultivated in RPMI-1640 medium with 10% fetal bovine serum (FBS) at a concentration of 0.25 × 10^6 cells/mL; the cells were transformed into macrophages by being incubated with phorbol 12-myristate 13-acetate (PMA) at 0.1 µg/mL. To adhere the cells, 0.1 mL of cells was added in 96-well dishes. Adherence was carried out for 72 h, and then epimastigote were added in the stationary phase of the Tulahuen strain producing β-galactosidase, at 5 parasite/cellU937 concentrations for 24 h at 37 °C with 5% CO2. To calculate the IC50 (Table 2), different concentrations of the compounds to evaluate and Benznidazole were added at an initial concentration of 20 µg/mL and 6 serial dilutions were made as a control of the effectiveness of the experiment, in addition to the control of the viability of the parasites (cells without drug treatment), from the blank of the culture medium (medium without cells), in duplicate. The cells were incubated for 72 h at 37 °C with 5% of CO2. […] The colorimetric reaction was read at 570 nm and optical densities (OD) for each experimental condition were registered. […] The half inhibitory concentration (IC50) was calculated by the Probit method using the % of inhibition for each concentration. […]

Consider `C[C@@H]1[C@H](O)[C@@H](C)/C=C/C=C/C=C/C=C/C=C/C=C/C=C/[C@H](O[C@@H]2O[C@H](C)[C@@H](O)[C@H](N)[C@@H]2O)C[C@@H]2O[C@](O)(C[C@@H](O)C[C@@H](O)[C@H](O)CC[C@@H](O)C[C@@H](O)CC(=O)O[C@H]1C)C[C@H](O)[C@H]2C(=O)O` [Amphotericin B], for which, in “in vitro” (mean ± SD), the CC50 is 49.8 ± 6.82 µM. The IC50 with Leishmania braziliensis worked out at 0.3 ± 0.07 µM.
On to `O=C(Cn1ccnc1[N+](=O)[O-])NCc1ccccc1` [Benznidazole], for which the IC50 in the data set with T. cruzi amastigote was found to be 16.6 ± 4 µM. Besides, in “in vitro”, the CC50 was above 200 µg/mL.
Consider `COc1cccc2c1C(=O)c1c(O)c3c(c(O)c1C2=O)C[C@@](O)(C(=O)CO)C[C@@H]3O[C@H]1C[C@H](N)[C@H](O)[C@H](C)O1` [Doxorrubicin, Doxorubicin], for which the CC50 in “in vitro” (mean ± SD) turned out to be 3.91 ± 0.4 µM.

The values above are taken from article PMC6321509, “Search of Allosteric Inhibitors and Associated Proteins of an AKT-like Kinase from Trypanosoma cruzi” (International Journal of Molecular Sciences, 2018).
